≈ marks a conversion by molar mass, not a printed value.
Assays:
Assay type in all cases: cell-based, Escherichia coli
[1] = tested on: E. coli; assay: AMBR 16-well prototype, growth of E. coli on clusters of magnetic particles (FIG. 3d); conditions: 0, 2, 4 and 8 μg/mL antibiotic
Source text: FIGS. 3a-f illustrates results from one variation of a multiwell prototype device using a 16-well disposable card. […] FIG. 3b illustrates exemplary results showing raw periodic laser intensity data corresponding to the rotation of the sample for one well; FIG. 3c is an image of a 16 sensor array AMBR system prototype that incorporates low-power lasers and phototransistors to measure rotational data (with black tray that supports the disposable card). FIG. 3d illustrates a graph of antibiotic susceptibility results for averaged and normalized data with E. coli bacteria.
For example, when cell division occurs, a significant portion of the bacteria remain on the surface of the particles. Thus, a more reliable growth response may be detected (as cells are not all shed into the medium). […] Clusters may be readily detected and their rotation more easily optically resolved. […] This allows for response to antibiotics to be measured in a reproducible manner, which makes the technique more clinically relevant. FIGS. 3a-3f illustrate a prototype device that has been used as a proof-of-principle for the rotation of clusters and use of multiwell sample plates. The example shown in FIG. 3a is a 16-well disposable plate. Each well in the plate (which may also be referred to as a “card”) has been treated to contain a single cluster of magnetic particles that rotate as a group. […]

[2] = tested on: uropathogenic E. coli isolate; assay: MIC determination with the Vitek 2 system
[3] = tested on: uropathogenic E. coli; assay: AMBR with self-assembled magnetic particle clusters in hanging droplet, MIC measurement; conditions: from FIGS. 47a and 47b, rotational period of clusters
Source text: FIGS. 46a-c illustrates one example AMBR using a cluster formed in a well having a curved interface (in this example, a hanging droplet). […] This lensing effect may be used to amplify the rotational signal by magnifying the image through the droplet. […] An LED or laser light may be focused by the droplet curvature, magnifying the ‘image’ of the particle cluster a 100-fold. After the magnification, the rotational period can be observed and measured using a photodetector, thus observing a periodic signal corresponding to the rotational period of the cluster. FIG. 46b illustrates the change in cluster shape/size and rotation. The rotational period of the cluster changes accordingly: as the cluster itself expands (e.g., changing shape to have a larger diameter); as bacteria or other analytes attach to the cluster and/or expand/swell; or as the viscosity of the surrounding fluid changes. Viscosity may change if unbound cells divide and increase in number within the well. The rotational period of the cluster can be measured using the Fast Fourier Transform (FFT). The lower graphs in FIG. 46b show a shift in the peak observing the peak location. […]
The self-assembled magnetic particles shown in FIG. 47a-g enabled rapid MIC measurements, and the determined values agreed with values obtained with the traditional microdilution method. […]

[4] = tested on: uropathogenic E. coli; assay: AMBR droplet microfluidic platform, small cell-population growth response (AST); conditions: for change in rotational period (bacterial growth): monitored minimum one hour
Source text: Asynchronous magnetic bead rotation (AMBR) may be performed on hanging droplets and on oil/water emulsions (e.g., droplets of water including the magnetic beads and analyte suspended in oil). For example an AMBR biosensor may use a droplet microfluidic platform that enables single cell and small cell population growth measurements for applications aimed at rapid antimicrobial susceptibility testing (“AST”). […] Growth was observed below the MIC, and no growth was observed above the MIC. A 52% change in the sensor signal (i.e. rotational period) was observed within 15 minutes, thus allowing AST measurements to be performed within minutes.
The microfluidic platform typically forms reproducibly or uniform-sized droplets of aqueous solution (e.g., media) including magnetic particles. […] In this example, the continuous phase consisted of mineral oil with 1% SPAN 80 (v/v). For bead (magnetic particle) characterization experiments, the aqueous phase consisted of PBS solution: PBS with 1% Pluronic F-68 and 0.1% BSA. For biological experiments, the aqueous phase consisted of MH broth solution: MH with 1% Pluronic F-68 and 0.1% BSA, which will be referred to as MH-PB.
In one example, using the microfluidic device described above and in FIGS. 23a and 23b, experiments were conducted on an Olympus IX71 inverted microscope. The microfluidic device was placed inside custom-built electromagnet coils that were integrated on the microscope stage (see, e.g., FIG. 23c). In this example, the rotating magnetic field was generated with a custom LabView program and data acquisition board (NI PCI-6221). The magnetic field driving frequency range was 0.1 Hz to 1 kHz, and the magnetic field strength was 0.9 mT, as measured with a 3-axis magnetic field probe (Senis Gmbh, C-H3A-2m).
Magnetic bead characterization experiments were conducted at 21° C. Single cell experiments were conducted at 21° C., with a 100× oil immersion objective. The magnetic field driving frequency was set at 500 Hz for control and growth experiments. One-minute videos at 15 frames per second (fps) were taken in 5-minute intervals with a digital camera. Small cell-population experiments were conducted at 35° C., with a 40× objective. The microfluidic device was placed on an ITO slide that was heated and maintained at a set temperature, 35+0.2° C. This temperature was monitored by a thermocouple that was coupled to the surface of the slide with a thermally conducting silver paste, Arctic Silver 5 (ARCTIC SILVER). The magnetic field driving frequency for small cell-population control and growth experiments was set at 50 Hz, and continuous videos were taken for a minimum of 5 hours at 2 fps. For small cell-population control and antibiotic response experiments, 1-minute videos were taken at 20 fps in either 5-minute or 20-minute intervals.
As mentioned, movies were captured with a digital camera (Basler, piA640-210 gm). The videos were analyzed using ImageJ (for example, see FIG. 23d). The rotational frequency of the bead complex was determined by monitoring the fluctuations in intensity profile at the target area of interest using ImageJ s ‘plot z-axis profile’ functionality. This intensity plot was analyzed by applying a Fast Fourier Transform (FFT) to the raw ImageJ data in MATLAB. The experimental error in determining the rotational period was designated as the FFT peak's full width at half max (FWHM) of the amplitude signal. […]

[5] = tested on: E. coli; assay: AMBR multiwell card reader, rotational period growth curves (FIG. 9); conditions: FIG. 9, driving frequency 100 Hz
Method: FIG. 9 illustrates the rotational period (in seconds) of rotating magnetic beads with attached E. coli versus time (in minutes) for various concentrations of antibiotic (Gentamicin).
A clinical sample (e.g. blood, urine, etc) may be mixed with a Muller-Hinton (MH) or phosphate buffered saline solution that contains magnetic beads that are coated with antibodies specific to the pathogen of interest. The bacteria and beads are incubated together to allow for ample time to bind and if necessary, population growth of the bacteria. […] This solution (now containing only […]) is then placed into the disposable (preferably multiwell) plate, where the beads are asynchronously rotated in the card reader for detection/identification and antibiotic susceptibility testing, where the minimum inhibitory concentration will be determined. […] Finally, the magnetic particles are rotated in the asynchronous regime and monitored optically to determine cell growth (elongation and/or division). […]
The asynchronous rotational period of the rotating cluster of magnetic particles may be measured using the light modulation that is produced when each laser beam (or other light) passes through the small magnetic bead cluster. […] From this, the rotation rate can be measured by simply tracking the peak-to-peak distance (period) of the modulated intensity. […]

For CC1(C)S[C@@H]2[C@H](NC(=O)[C@H](N)c3ccccc3)C(=O)N2[C@H]1C(=O)O [ampicillin], the “effect on growth of E. coli on clusters (rotational period)” value [1] was “acts as a growth accelerating agent”.
Compound [H]/N=C(/N)N[C@H]1[C@H](O)[C@@H](O)[C@H](O[C@@H]2O[C@@H](C)[C@](O)(C=O)[C@H]2O[C@@H]2O[C@@H](CO)[C@H](O)[C@@H](O)[C@@H]2NC)[C@@H](N/C(N)=N\[H])[C@@H]1O [streptomycin] has an MIC ([2]; Escherichia coli, isolate of the magnetic particle cluster experiments (FIGS. 47a-b), read-out: clinical (reference) MIC as determined with Vitek 2) of 16 µg/mL (≈ 27.5 µM) and an MIC ([3]; Escherichia coli, read-out: MIC measured with AMBR clusters) of 8 µg/mL (≈ 13.8 µM).
In the case of gentamicin, the “change in rotational period (bacterial growth)” value (from here on “change in rotational period”) ([4]; 0.5 μg/mL gentamicin) is reported as “increase in rotational period”, the “change in rotational period” value ([4]; 2 μg/mL gentamicin) is reported as “No substantial change in the rotational period” and the “change in rotational period” value ([4]; 4 μg/mL gentamicin) is reported as “No substantial change in the rotational period”. For the same compound, the “difference in rotational period between bacteria treated above and below the MIC” value ([4]; after 15 minutes) was 52%, the “difference in rotational period between bacteria treated above and below the MIC” value ([4]; within 25 minutes) was 100% and the “MIC as determined with the Vitek 2 system” value ([2]; isolate of the droplet microfluidic experiments) was 1 µg/mL. For the same compound, the “clinical (reference) MIC as determined with Vitek 2” value ([2]; isolate of the magnetic particle cluster experiments (FIGS. 47a-b)) was 2 µg/mL, the “MIC measured with AMBR clusters” value [3] was 2 µg/mL and the “minimum inhibitory concentration (MIC) from AMBR growth curves” value [5] was 2 µg/mL.

— patent publication US8846331B2, “Asynchronous magnetic bead rotation sensing systems and methods” (The Regents of the University of Michigan, priority 2010, dated 2014)
